Test results published in PubChem BioAssay AID1963961 (Molecular Pharmacology Branch, DTP, NCI, 2024).
Values belong to the compound of their own block, whether it stands above or below them.

Tested on: K98450-129-R-PDC multicell spheroids, viability
Assay: Anticancer human tumor K98450-129-R-PDC patient-derived colon adenocarcinoma cell line growth inhibition [PI3K]
Conditions: for IC50: curve of first compound; for viability, T/C: stronger effect = lower value
In short: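 Spheroid viability read-out. Co-cultures contained the tumor line plus HUVEC and human MSCs. Each agent was paired with a PI3K inhibitor (inavolisib, alpelisib, duvelisib, copanlisib) across half-log dilutions starting at clinical Cmax, or at 10 microM when Cmax was unknown.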

[1] = second compound 0.00316 µM, first compound 0.0316 µM
[2] = second compound 0.00316 µM, first compound 0.1 µM
[3] = second compound 0.01 µM, first compound 0.0316 µM
[4] = second compound 0.01 µM, first compound 0.1 µM
[5] = second compound 0.0316 µM, first compound 0.0316 µM
[6] = second compound 0.0316 µM, first compound 0.1 µM
[7] = second compound 0.1 µM, first compound 0.0316 µM
[8] = second compound 0.1 µM, first compound 0.1 µM
[9] = second compound 0.316 µM, first compound 0.0316 µM
[10] = second compound 0.316 µM, first compound 0.1 µM
[11] = second compound 1 µM, first compound 0.0316 µM
[12] = second compound 1 µM, first compound 0.1 µM
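Also: spheroids exposed to agents for seven days before read-out.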

- IC50 (second compound 0.00316 µM): > 100 nM
- IC50 (second compound 0.01 µM): > 100 nM
- IC50 (second compound 0.0316 µM): > 100 nM
- IC50 (second compound 0.1 µM): > 100 nM
- IC50 (second compound 0.316 µM): > 100 nM
- IC50 (second compound 1 µM): 46 nM
SMILES: CC(=O)c1c(C)c2cnc(Nc3ccc(N4CCNCC4)cn3)nc2n(C2CCCC2)c1=O + COc1c(OCCCN2CCOCC2)ccc2c3n(c(=NC(=O)c4cnc(N)nc4)nc12)CCN3
- viability, T/C (second compound 0.00316 µM, first compound 0.000316 µM): 114%
- viability, T/C (second compound 0.00316 µM, first compound 0.001 µM): 119%
- viability, T/C (second compound 0.00316 µM, first compound 0.00316 µM): 93.7%
- viability, T/C (second compound 0.00316 µM, first compound 0.01 µM): 90.5%
- viability, T/C [1]: 101%
- viability, T/C [2]: 95.8%
- viability, T/C (second compound 0.01 µM, first compound 0.000316 µM): 109%
- viability, T/C (second compound 0.01 µM, first compound 0.001 µM): 101%
- viability, T/C (second compound 0.01 µM, first compound 0.00316 µM): 97.3%
- viability, T/C (second compound 0.01 µM, first compound 0.01 µM): 91.1%
- viability, T/C [3]: 98.1%
- viability, T/C [4]: 92.4%
- viability, T/C (second compound 0.0316 µM, first compound 0.000316 µM): 85.7%
- viability, T/C (second compound 0.0316 µM, first compound 0.001 µM): 96.7%
- viability, T/C (second compound 0.0316 µM, first compound 0.00316 µM): 97.3%
- viability, T/C (second compound 0.0316 µM, first compound 0.01 µM): 87.6%
- viability, T/C [5]: 86.5%
- viability, T/C [6]: 70.4%
- viability, T/C (second compound 0.1 µM, first compound 0.000316 µM): 78.9%
- viability, T/C (second compound 0.1 µM, first compound 0.001 µM): 81.1%
- viability, T/C (second compound 0.1 µM, first compound 0.00316 µM): 74.3%
- viability, T/C (second compound 0.1 µM, first compound 0.01 µM): 67%
- viability, T/C [7]: 79.3%
- viability, T/C [8]: 72.1%
- viability, T/C (second compound 0.316 µM, first compound 0.000316 µM): 59%
- viability, T/C (second compound 0.316 µM, first compound 0.001 µM): 68.7%
- viability, T/C (second compound 0.316 µM, first compound 0.00316 µM): 65.7%
- viability, T/C (second compound 0.316 µM, first compound 0.01 µM): 58.2%
- viability, T/C [9]: 70%
- viability, T/C [10]: 56.1%
- viability, T/C (second compound 1 µM, first compound 0.000316 µM): 62%
- viability, T/C (second compound 1 µM, first compound 0.001 µM): 48.5%
- viability, T/C (second compound 1 µM, first compound 0.00316 µM): 51.6%
- viability, T/C (second compound 1 µM, first compound 0.01 µM): 57.7%
- viability, T/C [11]: 57.8%
- viability, T/C [12]: 38.8%

- IC50 (second compound 0.00316 µM): > 10000 nM
- IC50 (second compound 0.01 µM): > 10000 nM
- IC50 (second compound 0.0316 µM): > 10000 nM
- IC50 (second compound 0.1 µM): > 10000 nM
- IC50 (second compound 0.316 µM): > 10000 nM
- IC50 (second compound 1 µM): > 10000 nM
SMILES: CNC(=O)c1ccc(N2C(=S)N(c3ccc(C#N)c(C(F)(F)F)c3)C(=O)C2(C)C)cc1F + COc1c(OCCCN2CCOCC2)ccc2c3n(c(=NC(=O)c4cnc(N)nc4)nc12)CCN3
- viability, T/C [1]: 108%
- viability, T/C [2]: 102%
- viability, T/C (second compound 0.00316 µM, first compound 0.316 µM): 88.7%
- viability, T/C (second compound 0.00316 µM, first compound 1 µM): 97.1%
- viability, T/C (second compound 0.00316 µM, first compound 3.16 µM): 108%
- viability, T/C (second compound 0.00316 µM, first compound 10 µM): 101%
- viability, T/C [3]: 98.6%
- viability, T/C [4]: 107%
- viability, T/C (second compound 0.01 µM, first compound 0.316 µM): 80.1%
- viability, T/C (second compound 0.01 µM, first compound 1 µM): 77.8%
- viability, T/C (second compound 0.01 µM, first compound 3.16 µM): 100%
- viability, T/C (second compound 0.01 µM, first compound 10 µM): 98.8%
- viability, T/C [5]: 96.4%
- viability, T/C [6]: 96.9%
- viability, T/C (second compound 0.0316 µM, first compound 0.316 µM): 84.4%
- viability, T/C (second compound 0.0316 µM, first compound 1 µM): 81.5%
- viability, T/C (second compound 0.0316 µM, first compound 3.16 µM): 95.7%
- viability, T/C (second compound 0.0316 µM, first compound 10 µM): 68.1%
- viability, T/C [7]: 67.1%
- viability, T/C [8]: 83.2%
- viability, T/C (second compound 0.1 µM, first compound 0.316 µM): 72.6%
- viability, T/C (second compound 0.1 µM, first compound 1 µM): 77%
- viability, T/C (second compound 0.1 µM, first compound 3.16 µM): 78.7%
- viability, T/C (second compound 0.1 µM, first compound 10 µM): 70.1%
- viability, T/C [9]: 67.4%
- viability, T/C [10]: 65.6%
- viability, T/C (second compound 0.316 µM, first compound 0.316 µM): 73.5%
- viability, T/C (second compound 0.316 µM, first compound 1 µM): 58.5%
- viability, T/C (second compound 0.316 µM, first compound 3.16 µM): 79.1%
- viability, T/C (second compound 0.316 µM, first compound 10 µM): 39.8%
- viability, T/C [11]: 43.6%
- viability, T/C [12]: 58.4%
- viability, T/C (second compound 1 µM, first compound 0.316 µM): 54.2%
- viability, T/C (second compound 1 µM, first compound 1 µM): 50.1%
- viability, T/C (second compound 1 µM, first compound 3.16 µM): 57.2%
- viability, T/C (second compound 1 µM, first compound 10 µM): 65.5%

- IC50 (second compound 0.00316 µM): 663 nM
- IC50 (second compound 0.01 µM): 1000 nM
- IC50 (second compound 0.0316 µM): 351 nM
- IC50 (second compound 0.1 µM): 303 nM
- IC50 (second compound 0.316 µM): 102 nM
- IC50 (second compound 1 µM): < 9.49 nM
SMILES: Cn1cnc2c(F)c(Nc3ccc(Br)cc3Cl)c(C(=O)NOCCO)cc21 + COc1c(OCCCN2CCOCC2)ccc2c3n(c(=NC(=O)c4cnc(N)nc4)nc12)CCN3
- viability, T/C (second compound 0.00316 µM, first compound 0.00949 µM): 98.5%
- viability, T/C (second compound 0.00316 µM, first compound 0.03 µM): 77.5%
- viability, T/C (second compound 0.00316 µM, first compound 0.0949 µM): 76.3%
- viability, T/C (second compound 0.00316 µM, first compound 0.3 µM): 68.8%
- viability, T/C (second compound 0.00316 µM, first compound 0.949 µM): 41.5%
- viability, T/C (second compound 0.00316 µM, first compound 3 µM): 21.3%
- viability, T/C (second compound 0.01 µM, first compound 0.00949 µM): 94.7%
- viability, T/C (second compound 0.01 µM, first compound 0.03 µM): 77.9%
- viability, T/C (second compound 0.01 µM, first compound 0.0949 µM): 74.6%
- viability, T/C (second compound 0.01 µM, first compound 0.3 µM): 65.5%
- viability, T/C (second compound 0.01 µM, first compound 0.949 µM): 58.9%
- viability, T/C (second compound 0.01 µM, first compound 3 µM): 18.2%
- viability, T/C (second compound 0.0316 µM, first compound 0.00949 µM): 91.6%
- viability, T/C (second compound 0.0316 µM, first compound 0.03 µM): 86.1%
- viability, T/C (second compound 0.0316 µM, first compound 0.0949 µM): 66%
- viability, T/C (second compound 0.0316 µM, first compound 0.3 µM): 50.2%
- viability, T/C (second compound 0.0316 µM, first compound 0.949 µM): 37.7%
- viability, T/C (second compound 0.0316 µM, first compound 3 µM): 14.7%
- viability, T/C (second compound 0.1 µM, first compound 0.00949 µM): 87.4%
- viability, T/C (second compound 0.1 µM, first compound 0.03 µM): 71.4%
- viability, T/C (second compound 0.1 µM, first compound 0.0949 µM): 71.8%
- viability, T/C (second compound 0.1 µM, first compound 0.3 µM): 49.9%
- viability, T/C (second compound 0.1 µM, first compound 0.949 µM): 26.7%
- viability, T/C (second compound 0.1 µM, first compound 3 µM): 5.26%
- viability, T/C (second compound 0.316 µM, first compound 0.00949 µM): 56.4%
- viability, T/C (second compound 0.316 µM, first compound 0.03 µM): 49.9%
- viability, T/C (second compound 0.316 µM, first compound 0.0949 µM): 47.8%
- viability, T/C (second compound 0.316 µM, first compound 0.3 µM): 39.2%
- viability, T/C (second compound 0.316 µM, first compound 0.949 µM): 11.4%
- viability, T/C (second compound 0.316 µM, first compound 3 µM): 6.72%
- viability, T/C (second compound 1 µM, first compound 0.00949 µM): 45.9%
- viability, T/C (second compound 1 µM, first compound 0.03 µM): 37.8%
- viability, T/C (second compound 1 µM, first compound 0.0949 µM): 29.8%
- viability, T/C (second compound 1 µM, first compound 0.3 µM): 22.6%
- viability, T/C (second compound 1 µM, first compound 0.949 µM): 9.08%
- viability, T/C (second compound 1 µM, first compound 3 µM): 4.95%
